{"source": "patent US11084808B2", "about": "“Oxopicolinamide derivative, preparation method therefor and pharmaceutical use thereof” (Jiangsu Hengrui Medicine Co., Ltd., priority 2016, dated 2021)"}
{"tested_on": "human blood", "assay": "In vitro anticoagulant effect on human blood (APTT, CT2)", "type": "biochemical", "settings": "Table 2; concentration of the compound corresponding to 2 times the APTT of the blank control; human plasma", "experimental": "(§1) Test Example 2: Determination of In Vitro Anticoagulant Effect of the Compounds of the Present Invention on Human Blood\n(§2) 1. Experimental Materials\n(§3) Plasma: Human blood was collected in blood collection tubes containing no anticoagulant, and then 3.8% sodium citrate (volume ratio 1:9) was added. The tubes were centrifuged at 2500 rpm for 10 minutes at room temperature, and then the plasma was collected and stored at −80° C.:\n(§4) Reagents: APTT reagent (Activated partial thromboplastin time assay kit, SIEMENS, Art. No. B4218-1), calcium chloride solution;\n(§5) Instrument: Coagulation instrument (SYSMEX, CA-500).\n(§6) The divided plasma was melted at room temperature and mixed well. 10000 μM the test compound dissolved in 100% DMSO was diluted to 3000, 300, 200, 150, 75, 30, 10, 3, 0.3 μM with 100% DMSO, and the blank was 100% DMSO. The reagent, plasma, and compound were placed in corresponding positions in the coagulation instrument, and APTT detection of the compound was carried out.\n(§7) Curve fitting was carried out by graphpad and CT2 was calculated, i.e., the concentration of the compound corresponding to 2 times the APTT of the blank control.", "units": {"CT2 (compound concentration doubling APTT)": "µM"}}
{"molecule": "CCC(=O)c1ccc(Cl)cc1-c1cc(=O)n(C(CC2CCCCO2)C(=O)Nc2ccc(C(=O)O)cc2)cc1OC", "note": "(stereo not drawn) [Example 166]", "CT2 (compound concentration doubling APTT)": 7.2}
{"molecule": "CCC(=O)c1ccc(Cl)cc1-c1cc(=O)n([C@@H](Cc2ccccc2)C(=O)Nc2ccc(C(=O)O)cc2)cc1OC", "note": "[Example 9, (S)-4-(2-(4-(5-chloro-2-propionylphenyl)-5-methoxy-2-oxopyridin-1(2H)-yl)-3-phenylpropanamido)benzoic acid]", "CT2 (compound concentration doubling APTT)": 2.4}
{"molecule": "CCC(=O)c1ccc(Cl)cc1-c1cc(=O)n([C@@H](CCOC(C)(C)C)C(=O)Nc2ccc3nccnc3c2)cc1OC", "note": "[Example 114, (S)-4-(tert-butoxy)-2-(4-(5-chloro-2-propionylphenyl)-5-methoxy-2-oxopyridin-1(2H)-yl)-N-(quinoxalin-6-yl)butanamide]", "CT2 (compound concentration doubling APTT)": 3.6}
{"molecule": "COc1cn([C@@H](Cc2cccc(C#N)c2)C(=O)Nc2ccc(C(=O)O)cc2)c(=O)cc1-c1cc(Cl)ccc1C(C)=O", "note": "[Example 89, (S)-4-(2-(4-(2-acetyl-5-chlorophenyl)-5-methoxy-2-oxopyridin-1(2H)-yl)-3-(3-cyanophenyl)propanamido)benzoic acid]", "CT2 (compound concentration doubling APTT)": 5.7}
{"molecule": "COc1cn(C(Cc2ccccc2)C(=O)Nc2ccc(C(=O)O)cc2)c(=O)cc1-c1cc(Cl)ccc1C(=O)CC1CC1", "note": "(stereo not drawn) [Example 39, 4-(2-(4-(5-chloro-2-(2-cyclopropylacetyl)phenyl)-5-methoxy-2-oxopyridin-1(2H)-yl)-3-phenylpropanamido)benzoic acid]", "CT2 (compound concentration doubling APTT)": 8.3}
{"molecule": "COc1cn([C@@H](Cc2ccn(C3CC3)n2)C(=O)Nc2ccc(C(=O)O)cc2)c(=O)cc1-c1cc(Cl)ccc1C(C)=O", "note": "[Example 94, (S)-4-(2-(4-(2-acetyl-5-chlorophenyl)-5-methoxy-2-oxopyridin-1(2H)-yl)-3-(1-cyclopropyl-1H-pyrazol-3-yl)propanamido)benzoic acid]", "CT2 (compound concentration doubling APTT)": 2.2}
{"molecule": "COc1cn([C@H](CCOC2CCC2)C(=O)Nc2ccc(C(=O)O)cc2)c(=O)cc1-c1cc(Cl)ccc1C(C)=O", "note": "[Example 163, (R)-4-(2-(4-(2-acetyl-5-chlorophenyl)-5-methoxy-2-oxopyridin-1(2H)-yl)-4-cyclobutoxybutanamido)benzoic acid]", "CT2 (compound concentration doubling APTT)": ">10000"}
{"molecule": "COc1cn([C@@H](Cc2ccccn2)C(=O)Nc2ccc(C(=O)O)cc2)c(=O)cc1-c1cc(Cl)ccc1C(C)=O", "note": "[Example 80, (S)-4(2-(4-(2-acetyl-5-chlorophenyl)-5-methoxy-2-oxopyridin-1(2H)-yl)-3-(pyridin-2-yl)propanamido)benzoic acid]", "CT2 (compound concentration doubling APTT)": 7.9}
{"molecule": "COc1cn([C@@H](CCOC2CCC2)C(=O)Nc2ccc(C(=O)O)cc2)c(=O)cc1-c1cc(Cl)ccc1C(C)=O", "note": "[Example 164, (S)-4-(2-(4-(2-acetyl-5-chlorophenyl)-5-methoxy-2-oxopyridin-1(2H)-yl)-4-cyclobutoxybutanamido)benzoic acid]", "CT2 (compound concentration doubling APTT)": 6.4}
{"molecule": "COc1cn(C(Cc2ccn(C3CC3)n2)C(=O)Nc2ccc(C(=O)O)cc2)c(=O)cc1-c1cc(Cl)ccc1C(C)=O", "note": "(stereo not drawn) [Example 93, 4-(2-(4-(2-acetyl-5-chlorophenyl)-5-methoxy-2-oxopyridin-1(2H)-yl)-3-(1-cyclopropyl-1H-pyrazol-3-yl)propanamido)benzoic acid]", "CT2 (compound concentration doubling APTT)": 2.9}
{"molecule": "CCNC(=O)c1ccc(NC(=O)[C@H](Cc2ccccc2)n2cc(OC)c(-c3cc(Cl)ccc3C(C)=O)cc2=O)cc1", "note": "[Example 37, (S)-4-(2-(4-(2-acetyl-5-chlorophenyl)-5-methoxy-2-oxopyridin-1(2H)-yl)-3-phenylpropanamido)-N-ethylbenzamide]", "CT2 (compound concentration doubling APTT)": 7.8}
{"molecule": "COCCC(C(=O)Nc1ccc2[nH]c(C(=O)O)cc2c1)n1cc(OC)c(-c2cc(Cl)ccc2C(C)=O)cc1=O", "note": "(stereo not drawn) [Example 1, 5-(2-(4-(2-acetyl-5-chlorophenyl)-5-methoxy-2-oxopyridin-1(2H)-yl)-4-methoxybutanamido)-1H-indole-2-carboxylic acid]", "CT2 (compound concentration doubling APTT)": 4.4}
{"molecule": "CCC(=O)c1ccc(Cl)cc1-c1cc(=O)n(C(Cc2ccccc2)C(=O)Nc2ccc(C(=O)O)cc2)cc1OC", "note": "(stereo not drawn) [Example 8, 4-(2-(4-(5-chloro-2-propionylphenyl)-5-methoxy-2-oxopyridin-1(2H)-yl)-3-phenylpropanamido)benzoic acid]", "CT2 (compound concentration doubling APTT)": 6.4}
{"molecule": "COc1cn([C@@H](Cc2cnn(C)c2)C(=O)Nc2ccc(C(=O)O)cc2)c(=O)cc1-c1cc(Cl)ccc1C(C)=O", "note": "[Example 105, (S)-4-(2-(4-(2-acetyl-5-chlorophenyl)-5-methoxy-2-oxopyridin-1(2H)-yl)-3-(1-methyl-1H-pyrazol-4-yl)propanamido)benzoic acid]", "CT2 (compound concentration doubling APTT)": 6.9}
{"molecule": "[2H]C([2H])([2H])Oc1cn([C@H](Cc2ccccc2)C(=O)Nc2ccc(C(=O)O)cc2)c(=O)cc1-c1cc(Cl)ccc1C(C)=O", "note": "[Example 180, 4-[[(2R)-2-[4-(2-acetyl-5-chloro-phenyl)-2-oxo-5-(trideuteromethoxy)-1-pyridyl]-3-phenyl-propionyl]amino]benzoic acid]", "CT2 (compound concentration doubling APTT)": ">10000"}
{"molecule": "COc1cn([C@@H](CCOC(C)(C)C)C(=O)Nc2ccc(C(=O)O)cc2)c(=O)cc1-c1cc(Cl)ccc1C(C)=O", "note": "[Example 111, (S)-4-(2-(4-(2-acetyl-5-chlorophenyl)-5-methoxy-2-oxopyridin-1(2H)-yl)-4-(tert-butoxy)butanamido)benzoic acid]", "CT2 (compound concentration doubling APTT)": 3.2}
{"molecule": "[2H]C([2H])([2H])Oc1cn([C@@H](CCOC(C)(C)C)C(=O)Nc2ccc(C(=O)O)cc2)c(=O)cc1-c1cc(Cl)ccc1C(=O)CC", "note": "[Example 177, 4-[[(2S)-4-tert-butoxy-2-[4-(5-chloro-2-propionyl-phenyl)-2-oxo-5-(trideuteromethoxy)-1-pyridyl]butyryl]amino]benzoic acid]", "CT2 (compound concentration doubling APTT)": 1.5}
{"molecule": "COc1cn(C(Cc2ccn(C)n2)C(=O)Nc2ccc(C(=O)O)cc2)c(=O)cc1-c1cc(Cl)ccc1C(C)=O", "note": "(stereo not drawn) [Example 100, 4-(2-(4-(2-acetyl-5-chlorophenyl)-5-methoxy-2-oxopyridin-(2H)-yl)-3-(1-methyl-1H-pyrazol-3-yl)propanamido)benzoic acid]", "CT2 (compound concentration doubling APTT)": 3.3}
{"molecule": "[2H]c1c([2H])c([2H])c(C([2H])([2H])[C@@H](C(=O)Nc2ccc(C(=O)O)cc2)n2cc(OC)c(-c3cc(Cl)ccc3C(C)=O)cc2=O)c([2H])c1[2H]", "note": "[Example 181, 4-[[(2S)-2-[4-(2-acetyl-5-chloro-phenyl)-5-methoxy-2-oxo-1-pyridyl]-3,3-dideutero-3-(2,3,4,5,6-pentadeuterophenyl)propionyl]amino]benzoic acid]", "CT2 (compound concentration doubling APTT)": 2.3}
{"molecule": "COc1cn([C@H](CCOC(C)(C)C)C(=O)Nc2ccc(C(=O)O)cc2)c(=O)cc1-c1cc(Cl)ccc1C(C)=O", "note": "[Example 112, (R)-4-(2-(4-(2-acetyl-5-chlorophenyl)-5-methoxy-2-oxopyridin-(2H)-yl)-4-(tert-butoxy)butanamido)benzoic acid]", "CT2 (compound concentration doubling APTT)": ">10000"}
{"tested_on": "human blood", "assay": "In vitro anticoagulant effect on human blood (APTT, CT2)", "type": "biochemical", "settings": "Table 3 comparison with similar compounds in the published patents; human plasma", "experimental": "as §1, §2, §3, §4, §5, §6, §7", "units": {"CT2 (compound concentration doubling APTT)": "µM"}}
{"molecule": "CCC(=O)c1ccc(Cl)cc1-c1cc(=O)n([C@@H](CCOC(C)(C)C)C(=O)Nc2ccc3nccnc3c2)cc1OC", "note": "[Example 114, (S)-4-(tert-butoxy)-2-(4-(5-chloro-2-propionylphenyl)-5-methoxy-2-oxopyridin-1(2H)-yl)-N-(quinoxalin-6-yl)butanamide]", "CT2 (compound concentration doubling APTT)": 2.9}
{"tested_on": "human blood", "assay": "In vitro anticoagulant effect on human blood (APTT, CT2)", "type": "biochemical", "settings": "from Table 3", "experimental": "as §1, §2, §3, §4, §5, §6, §7", "units": {"CT2 value ratio of Example 114 and comparative Example 2": "times"}}
{"molecule": "CCC(=O)c1ccc(Cl)cc1-c1cc(=O)n([C@@H](CCOC(C)(C)C)C(=O)Nc2ccc3nccnc3c2)cc1OC", "note": "[Example 114, (S)-4-(tert-butoxy)-2-(4-(5-chloro-2-propionylphenyl)-5-methoxy-2-oxopyridin-1(2H)-yl)-N-(quinoxalin-6-yl)butanamide]", "CT2 value ratio of Example 114 and comparative Example 2": 4.5}
{"tested_on": "not listed separately", "assay": "Pharmacokinetics assay in rats after intragastrical administration", "type": "in vivo, Sprague-Dawley (SD) rats", "settings": "intragastric, 2 mg/kg", "source_text": "Test Example 3. Pharmacokinetics Assay of the Compounds of the Present Invention\nRats were used as test animals. […] The pharmacokinetic behavior of the compounds of the present invention was studied and evaluated in rats.\n56 healthy adult Sprague-Dawley (SD) rats, half male and half female, were purchased from SINO-BRITSH SIPPR/BK LAB. ANIMAL LTD., CO, with License No.: SCXK (Shanghai) 2008-0016.\n2.3 Preparation of the Test Compounds\nA certain amount of the test compound was weighed, and added with 5% by volume of DMSO, 5% by volume of Tween 80 and 90% normal saline to prepare a 0.2 mg/mL colorless, clear and transparent solution.\nAfter an overnight fast, SD rats were intragastrically administered at a dose of 2.0 mg/kg and an administration volume of 10.0 mL/kg.\nExample 111, Example 114, Example 160. Example 171 and Comparative Example 1. Blood (0.2 mL) was taken from the orbital sinus before administration and at 0.5, 1.0, 2.0, 4.0, 6.0, 8.0, 11.0 and 24.0 hours after administration. […]\nThe content of the test compound in the plasma of rats after intragastric administration of different concentrations of the drug was determined: 25 μL of rat plasma at each time after administration was taken and added with 30 μL (100 ng/mL) of the internal standard solution of camptothecin and 200 μL of acetonitrile, shaken vertically for 5 minutes, and centrifuged for 10 minutes (4000 rpm). […]", "units": {"AUC difference versus Comparative Example 1": "times", "Cmax difference versus Comparative Example 1": "times"}}
{"molecule": "COc1cn([C@@H](Cc2cccnc2)C(=O)Nc2ccc(C(=O)O)cc2)c(=O)cc1-c1cc(Cl)ccc1C(C)=O", "note": "[Example 84, (S)-4-(2-(4-(2-acetyl-5-chlorophenyl)-5-methoxy-2-oxopyridin-1(2H)-yl)-3-(pyridin-3-yl)propanamido)benzoic acid]", "AUC difference versus Comparative Example 1": 7.5, "Cmax difference versus Comparative Example 1": 6.9}
